In ChEMBL document CHEMBL1667786, “Synthesis and biological evaluation of indole-chalcone derivatives as β-amyloid imaging probe” (Bioorg Med Chem Lett, 2011):
Active and inactive are the calls of the source. No cut-off for these calls is given here.

Assays:
[1] = Displacement of [125I]IMPY from amyloid beta 1 to 42 after 2 hrs
[2] = species: Mus musculus; assay: Binding affinity to amyloid beta in APP/PS1 transgenic C57 mouse brain at 1 uM after 10 mins by Thioflavin-S fluorescence assay; assay type: tissue-based; conditions: tested as the 125I-labelled form
[3] = species: Mus musculus; assay: Binding affinity to amyloid beta in APP/PS1 transgenic C57 mouse cortex at 1 uM after 10 mins by autoradiography; conditions: tested as the 125I-labelled form
[4] = test system: Blood; assay: Biodistribution in ddY mouse blood assessed per gram of tissue at 1 uCi, iv after 2 mins; assay type: ADME, organism-based; conditions: in vivo
[5] = test system: Brain; assay: Biodistribution in ddY mouse brain assessed per gram of tissue at 1 uCi, iv after 2 mins; assay type: ADME, organism-based; conditions: in vivo
[6] = test system: Heart; assay: Biodistribution in ddY mouse heart assessed per gram of tissue at 1 uCi, iv after 2 mins; assay type: ADME, organism-based; conditions: in vivo
[7] = test system: Liver; assay: Biodistribution in ddY mouse liver assessed per gram of tissue at 1 uCi, iv after 2 mins; assay type: ADME, organism-based; conditions: in vivo
[8] = test system: Spleen; assay: Biodistribution in ddY mouse spleen assessed per gram of tissue at 1 uCi, iv after 2 mins; assay type: ADME, organism-based; conditions: in vivo
[9] = test system: Lung; assay: Biodistribution in ddY mouse lung assessed per gram of tissue at 1 uCi, iv after 2 mins; assay type: ADME, organism-based; conditions: in vivo
[10] = test system: Kidney; assay: Biodistribution in ddY mouse kidney assessed per gram of tissue at 1 uCi, iv after 2 mins; assay type: ADME, organism-based; conditions: in vivo
[11] = test system: Stomach; assay: Biodistribution in ddY mouse stomach assessed per gorgan at 1 uCi, iv after 2 mins; assay type: ADME, organism-based; conditions: in vivo
[12] = test system: Intestine; assay: Biodistribution in ddY mouse intestine assessed per gram of tissue at 1 uCi, iv after 2 mins; assay type: ADME, organism-based; conditions: in vivo
[13] = test system: Blood; assay: Biodistribution in ddY mouse blood assessed per gram of tissue at 1 uCi, iv after 15 mins; assay type: ADME, organism-based; conditions: in vivo, 0.25 h
[14] = test system: Brain; assay: Biodistribution in ddY mouse brain assessed per gram of tissue at 1 uCi, iv after 15 mins; assay type: ADME, organism-based; conditions: in vivo, 0.25 h
[15] = test system: Heart; assay: Biodistribution in ddY mouse heart assessed per gram of tissue at 1 uCi, iv after 15 mins; assay type: ADME, organism-based; conditions: in vivo, 0.25 h
[16] = test system: Liver; assay: Biodistribution in ddY mouse liver assessed per gram of tissue at 1 uCi, iv after 15 mins; assay type: ADME, organism-based; conditions: in vivo, 0.25 h
[17] = test system: Spleen; assay: Biodistribution in ddY mouse spleen assessed per gram of tissue at 1 uCi, iv after 15 mins; assay type: ADME, organism-based; conditions: in vivo, 0.25 h
[18] = test system: Lung; assay: Biodistribution in ddY mouse lung assessed per gram of tissue at 1 uCi, iv after 15 mins; assay type: ADME, organism-based; conditions: in vivo, 0.25 h
[19] = test system: Kidney; assay: Biodistribution in ddY mouse kidney assessed per gram of tissue at 1 uCi, iv after 15 mins; assay type: ADME, organism-based; conditions: in vivo, 0.25 h
[20] = test system: Stomach; assay: Biodistribution in ddY mouse stomach assessed per gorgan at 1 uCi, iv after 15 mins; assay type: ADME, organism-based; conditions: in vivo, 0.25 h
[21] = test system: Intestine; assay: Biodistribution in ddY mouse intestine assessed per gram of tissue at 1 uCi, iv after 15 mins; assay type: ADME, organism-based; conditions: in vivo, 0.25 h
[22] = test system: Blood; assay: Biodistribution in ddY mouse blood assessed per gram of tissue at 1 uCi, iv after 30 mins; assay type: ADME, organism-based; conditions: in vivo, 0.5 h
[23] = test system: Brain; assay: Biodistribution in ddY mouse brain assessed per gram of tissue at 1 uCi, iv after 30 mins; assay type: ADME, organism-based; conditions: in vivo, 0.5 h
[24] = test system: Heart; assay: Biodistribution in ddY mouse heart assessed per gram of tissue at 1 uCi, iv after 30 mins; assay type: ADME, organism-based; conditions: in vivo, 0.5 h
[25] = test system: Liver; assay: Biodistribution in ddY mouse liver assessed per gram of tissue at 1 uCi, iv after 30 mins; assay type: ADME, organism-based; conditions: in vivo, 0.5 h
[26] = test system: Spleen; assay: Biodistribution in ddY mouse spleen assessed per gram of tissue at 1 uCi, iv after 30 mins; assay type: ADME, organism-based; conditions: in vivo, 0.5 h
[27] = test system: Lung; assay: Biodistribution in ddY mouse lung assessed per gram of tissue at 1 uCi, iv after 30 mins; assay type: ADME, organism-based; conditions: in vivo, 0.5 h
[28] = test system: Kidney; assay: Biodistribution in ddY mouse kidney assessed per gram of tissue at 1 uCi, iv after 30 mins; assay type: ADME, organism-based; conditions: in vivo, 0.5 h
[29] = test system: Stomach; assay: Biodistribution in ddY mouse stomach assessed per gorgan at 1 uCi, iv after 30 mins; assay type: ADME, organism-based; conditions: in vivo, 0.5 h
[30] = test system: Intestine; assay: Biodistribution in ddY mouse intestine assessed per gram of tissue at 1 uCi, iv after 30 mins; assay type: ADME, organism-based; conditions: in vivo, 0.5 h
[31] = test system: Blood; assay: Biodistribution in ddY mouse blood assessed per gram of tissue at 1 uCi, iv after 60 mins; assay type: ADME, organism-based; conditions: in vivo, 1 h
[32] = test system: Brain; assay: Biodistribution in ddY mouse brain assessed per gram of tissue at 1 uCi, iv after 60 mins; assay type: ADME, organism-based; conditions: in vivo, 1 h
[33] = test system: Heart; assay: Biodistribution in ddY mouse heart assessed per gram of tissue at 1 uCi, iv after 60 mins; assay type: ADME, organism-based; conditions: in vivo, 1 h
[34] = test system: Liver; assay: Biodistribution in ddY mouse liver assessed per gram of tissue at 1 uCi, iv after 60 mins; assay type: ADME, organism-based; conditions: in vivo, 1 h
[35] = test system: Spleen; assay: Biodistribution in ddY mouse spleen assessed per gram of tissue at 1 uCi, iv after 60 mins; assay type: ADME, organism-based; conditions: in vivo, 1 h
[36] = test system: Lung; assay: Biodistribution in ddY mouse lung assessed per gram of tissue at 1 uCi, iv after 60 mins; assay type: ADME, organism-based; conditions: in vivo, 1 h
[37] = test system: Kidney; assay: Biodistribution in ddY mouse kidney assessed per gram of tissue at 1 uCi, iv after 60 mins; assay type: ADME, organism-based; conditions: in vivo, 1 h
[38] = test system: Stomach; assay: Biodistribution in ddY mouse stomach assessed per gorgan at 1 uCi, iv after 60 mins; assay type: ADME, organism-based; conditions: in vivo, 1 h
[39] = test system: Intestine; assay: Biodistribution in ddY mouse intestine assessed per gram of tissue at 1 uCi, iv after 60 mins; assay type: ADME, organism-based; conditions: in vivo, 1 h
[40] = test system: Blood; assay: Biodistribution in ddY mouse blood assessed per gram of tissue at 1 uCi, iv after 120 mins; assay type: ADME, organism-based; conditions: in vivo, 2 h
[41] = test system: Brain; assay: Biodistribution in ddY mouse brain assessed per gram of tissue at 1 uCi, iv after 120 mins; assay type: ADME, organism-based; conditions: in vivo, 2 h
[42] = test system: Heart; assay: Biodistribution in ddY mouse heart assessed per gram of tissue at 1 uCi, iv after 120 mins; assay type: ADME, organism-based; conditions: in vivo, 2 h
[43] = test system: Liver; assay: Biodistribution in ddY mouse liver assessed per gram of tissue at 1 uCi, iv after 120 mins; assay type: ADME, organism-based; conditions: in vivo, 2 h
[44] = test system: Spleen; assay: Biodistribution in ddY mouse spleen assessed per gram of tissue at 1 uCi, iv after 120 mins; assay type: ADME, organism-based; conditions: in vivo, 2 h
[45] = test system: Lung; assay: Biodistribution in ddY mouse lung assessed per gram of tissue at 1 uCi, iv after 120 mins; assay type: ADME, organism-based; conditions: in vivo, 2 h
[46] = test system: Kidney; assay: Biodistribution in ddY mouse kidney assessed per gram of tissue at 1 uCi, iv after 120 mins; assay type: ADME, organism-based; conditions: in vivo, 2 h
[47] = test system: Stomach; assay: Biodistribution in ddY mouse stomach assessed per gorgan at 1 uCi, iv after 120 mins; assay type: ADME, organism-based; conditions: in vivo, 2 h
[48] = test system: Intestine; assay: Biodistribution in ddY mouse intestine assessed per gram of tissue at 1 uCi, iv after 120 mins; assay type: ADME, organism-based; conditions: in vivo, 2 h

For O=C(/C=C/c1ccc2[nH]ccc2c1)c1ccc(F)cc1, the Ki [1] was 35.1 nM.
Work on Nc1ccc(C(=O)/C=C/c2ccc3[nH]ccc3c2)cc1 yielded a Ki [1] greater than 1010 nM.
O=C(/C=C/c1ccc2[nH]ccc2c1)c1ccc(Br)cc1 gave a Ki [1] of 8.96 nM.
CNc1ccc(C(=O)/C=C/c2ccc3[nH]ccc3c2)cc1 showed a Ki [1] of 51.1 nM.
Compound O=C(/C=C/c1ccc2[nH]ccc2c1)c1ccc(Cl)cc1 has a Ki [1] of 8.43 nM.
Compound O=C(/C=C/c1ccc2[nH]ccc2c1)c1ccc(O)cc1 has a Ki [1] greater than 360 nM.
For O=C(/C=C/c1ccc2[nH]ccc2c1)c1ccc(I)cc1, the Ki [1] was 8.22 nM, the Activity [2] was “Active” and the Activity [3] was “Active”.
Work on COc1ccc(C(=O)/C=C/c2ccc3[nH]ccc3c2)cc1 yielded a Ki [1] of 8.52 nM.
For O=C(/C=C/c1ccc2[nH]ccc2c1)c1ccc([125I])cc1, the Drug uptake [4] was 8.85 %ID, the Drug uptake [5] was 0.41 %ID and the Drug uptake [6] was 3.27 %ID. For the same compound, the Drug uptake [7] was 2.69 %ID, the Drug uptake [8] was 3.02 %ID and the Drug uptake [9] was 7.33 %ID. The Drug uptake [10] was 7.3 %ID, the Drug uptake [11] was 2.01 %ID and the Drug uptake [12] was 1.36 %ID. The Drug uptake [13] was 5.7 %ID, the Drug uptake [14] was 0.29 %ID and the Drug uptake [15] was 2.27 %ID. It also gave a Drug uptake [16] of 2.21 %ID, a Drug uptake [17] of 2.96 %ID and a Drug uptake [18] of 4.86 %ID. For the same compound, the Drug uptake [19] was 4.03 %ID, the Drug uptake [20] was 1.07 %ID and the Drug uptake [21] was 2.01 %ID. The Drug uptake [22] was 4.79 %ID, the Drug uptake [23] was 0.2 %ID and the Drug uptake [24] was 1.72 %ID. The Drug uptake [25] was 1.91 %ID, the Drug uptake [26] was 2.4 %ID and the Drug uptake [27] was 4.2 %ID. The Drug uptake [28] was 3.26 %ID, the Drug uptake [29] was 0.85 %ID and the Drug uptake [30] was 2.32 %ID. It also gave a Drug uptake [31] of 4.15 %ID, a Drug uptake [32] of 0.21 %ID and a Drug uptake [33] of 1.61 %ID. For the same compound, the Drug uptake [34] was 1.48 %ID, the Drug uptake [35] was 2.27 %ID and the Drug uptake [36] was 3.4 %ID. It also gave a Drug uptake [37] of 3.11 %ID, a Drug uptake [38] of 0.96 %ID and a Drug uptake [39] of 1.72 %ID. For the same compound, the Drug uptake [40] was 3.72 %ID, the Drug uptake [41] was 0.13 %ID and the Drug uptake [42] was 1.33 %ID. It also gave a Drug uptake [43] of 1.43 %ID, a Drug uptake [44] of 1.89 %ID and a Drug uptake [45] of 3.19 %ID. The Drug uptake [46] was 2.78 %ID, the Drug uptake [47] was 1.19 %ID and the Drug uptake [48] was 2.13 %ID.
In the case of CN(C)c1ccc(/C=C/C(=O)c2ccc(I)cc2)cc1, the Activity [1] is reported as “Dose-dependent effect” and the Ki [1] is reported as 1.97 nM.
For CN(C)c1ccc(C(=O)/C=C/c2ccc3[nH]ccc3c2)cc1, the Ki [1] was 5.17 nM.
In the case of COc1ccc2cc(C(=O)/C=C/c3ccc4[nH]ccc4c3)ccc2c1, the Ki [1] is reported as 4.46 nM.
